According to ChEMBL document CHEMBL6096680, “Development of PRC1 Inhibitors Employing Fragment-Based Approach and NMR-Guided Optimization” (J Med Chem, 2025):
The source made the active and inactive calls. No cut-off for these calls is given here.

How the values were obtained:
[1] = (§1) Inhibition of 6His-tagged RING1B (10 to 116 residues)/BMI1 (1 to 104 residues) (unknown origin) extracted from Escherichia coli BL21 (DE3) cells preincubated with compound for 1 hrs followed by 3-(1-(4,26-dioxo-30-((3aS,4S,6aR)-2-oxohexahydro-1H-thieno[3,4-d]imidazol-4-yl)-7,10,13,16,19,22-hexaoxa-3,25-diazatriacontyl)-6-methoxy-1H-indol-4-yl)-5-(6-fluoro-1H-indol-4-yl)-4-isopropyl-1H-pyrrole-2-carboxylic acid addition and measured after 1 hrs by Alphascreen competition assay; parameters: species or system Homo sapiens
Homo sapiens [2] = species: Homo sapiens; assay: Binding affinity to 15N-labeled RING1B (10 to 116 residues)/BMI1 (1 to 104 residues) (unknown origin) extracted from Escherichia coli BL21 (DE3) cells assessed as sum of A79, G83 and T89 chemical shift perturbations at 200 uM by NMR binding analysis
Homo sapiens [3] = species: Homo sapiens; assay: Binding affinity to 15N-labeled RING1B (10 to 116 residues)/BMI1 (1 to 104 residues) (unknown origin) extracted from Escherichia coli BL21 (DE3) cells assessed as ratio of chemical shift perturbations at 1:2 compound concentration ration by NMR binding analysis
Homo sapiens [4] = species: Homo sapiens; assay: Binding affinity to 15N-labeled RING1B (10 to 116 residues)/BMI1 (1 to 104 residues) (unknown origin) extracted from Escherichia coli BL21 (DE3) cells assessed as sum of A79, G83 and T89 chemical shift perturbations at 100 uM by NMR binding analysis
Homo sapiens [5] = species: Homo sapiens; assay: (§2) Binding affinity to 15N-labeled RING1B (10 to 116 residues)/BMI1 (1 to 104 residues) (unknown origin) extracted from Escherichia coli BL21 (DE3) cells assessed as chemical shift perturbation for amide of Gly83 residue at 60 to 120 uM by 1H-15N HSQC spectra based NMR titration analysis; settings: dose 60-120 µM
Homo sapiens [6] = species: Homo sapiens; assay: Binding affinity to 15N-labeled RING1A (7 to 113 residues)/BMI1 (1 to 104 residues) (unknown origin) extracted from Escherichia coli BL21 (DE3) cells assessed as chemical shift perturbation for amide of Gly83 residue at 60 to 120 uM by 1H-15N HSQC spectra based NMR titration analysis; settings: dose 60-120 µM
[7] = as §2, with “to” for “to 15N-labeled”, “by measuring estimated dissociation constant” for “at 60 to 120 uM”; parameters: species or system Homo sapiens
[8] = Binding affinity to 15N-labeled RING1B (10 to 116 residues)/BMI1 (1 to 104 residues) (unknown origin) extracted from Escherichia coli BL21 (DE3) cells assessed as dissociation constant by NMR-based fragment screening analysis; parameters: species or system Homo sapiens
Homo sapiens [9] = species: Homo sapiens; assay: (§3) Inhibition of RING1B (10 to 116 residues)-BMI1 (1 to 104 residues) (unknown origin) extracted from Escherichia coli BL21 (DE3) cells using HeLa nucleosome as substrate assessed as reduction in reduction in H2AK119 ubiquitination preincubated with compound for 1 hrs followed by flag-tagged ubiquitin and substrate addition and measured after 1 hrs by Western blot analysis; settings: time 2.0 hrs
[10] = as §3; parameters: species or system Homo sapiens
[11] = Selectivity ratio of IC50 for inhibition of 6His-tagged RING1B (10 to 116 residues)-BMI1 (1 to 104 residues) (unknown origin) extracted from Escherichia coli BL21 (DE3) cells to IC50 for inhibition of 6His-tagged RING1A (7 to 113 residues)-BMI1 (1 to 104 residues) (unknown origin) extracted from Escherichia coli BL21 (DE3) cells
[12] = as §1, with “RING1A (7” for “RING1B (10”, “113 residues)-BMI1” for “116 residues)/BMI1”; parameters: species or system Homo sapiens
[13] = Binding affinity to RING1B (10 to 116 residues)/BMI1 (1 to 104 residues) (unknown origin) extracted from Escherichia coli BL21 (DE3) cells assessed as dissociation constant by ITC analysis; parameters: species or system Homo sapiens

| IC50 [1] | Activity (Homo sapiens [2]) | Ratio (Homo sapiens [3]) | Activity (Homo sapiens [4]) | SMILES | other results |
| --- | --- | --- | --- | --- | --- |
| 10.9 µM |  |  |  | CC(C)c1c(-c2ccc3cc[nH]c3c2)[nH]c(C(=O)O)c1-c1c(Cl)ccc2[nH]ccc12 |  |
| 5.5 µM | 319 Hz | 0.93 | 298 Hz | CC(C)c1c(-c2cc(F)cc3[nH]ccc23)[nH]c(C(=O)O)c1-c1cc(C(F)(F)F)cc2[nH]ccc12 |  |
| 4.4 µM |  |  |  | CC(C)c1c(-c2cc(F)cc3cc[nH]c23)[nH]c(C(=O)O)c1-c1c(Cl)ccc2[nH]ccc12 |  |
| 2.2 µM |  |  |  | CC(C)c1c(-c2cccc3[nH]c(C(=O)O)cc23)[nH]c(C(=O)O)c1-c1c(Cl)ccc2[nH]ccc12 |  |
| 2.9 µM |  |  |  | CC(C)c1c(-c2cccc3[nH]ccc23)[nH]c(C(=O)O)c1-c1c(Cl)ccc2[nH]ccc12 |  |
| 5.1 µM |  |  |  | Cc1ccc2[nH]ccc2c1-c1[nH]c(C(=O)O)c(-c2c(Cl)ccc3[nH]ccc23)c1C(C)C |  |
| 5.6 µM | 291 Hz | 0.92 | 268 Hz | CCC(C)c1c(-c2cccc3[nH]ccc23)[nH]c(C(=O)O)c1-c1cccc2[nH]ccc12 (stereo not drawn) |  |
| 6.3 µM |  |  |  | CCc1cc(-c2[nH]c(C(=O)O)c(-c3c(Cl)ccc4[nH]ccc34)c2C(C)C)c2cc[nH]c2c1 |  |
| 5 µM |  |  |  | COc1cc(-c2[nH]c(C(=O)O)c(-c3c(Cl)ccc4[nH]ccc34)c2C(C)C)c2cc[nH]c2c1 |  |
|  |  |  |  | COc1cc(-c2c(C(=O)O)[nH]c(-c3cc(F)cc4[nH]ccc34)c2C(C)C)c2ccn(CCNC(=O)CCOCCOCCOCCOCCOCCOCCNC(=O)CCCC[C@@H]3SC[C@@H]4NC(=O)N[C@@H]43)c2c1 | Activity (Homo sapiens [5]): Active; Activity (Homo sapiens [6]): Active |
| 37.7 µM | 172 Hz | 0.62 | 107 Hz | CC(CO)c1c(-c2cccc3[nH]ccc23)[nH]c(C(=O)O)c1-c1cccc2[nH]ccc12 (stereo not drawn) |  |
|  |  |  |  | CCc1c(C(=O)O)[nH]c(-c2cccc3[nH]ccc23)c1CC | Kd [7]: 250 µM |
|  |  |  |  | Cc1cc(C(=O)O)[nH]c1-c1cccc2[nH]ccc12 | Kd [8]: 1400 µM |
| 7.2 µM |  |  |  | CC(C)c1c(-c2cc(C(F)(F)F)cc3[nH]ccc23)[nH]c(C(=O)O)c1-c1c(Cl)ccc2[nH]ccc12 | inhibition (Homo sapiens [9]): Dose-dependent-effect; Inhibition Of E3 Ligase Activity Of Prc1 Observed; IC50 [10]: 6.7 µM |
| 4 µM |  |  |  | CC(C)c1c(-c2ccc3[nH]ccc3c2)[nH]c(C(=O)O)c1-c1c(Cl)ccc2[nH]ccc12 |  |
|  |  |  |  | O=C(O)c1ccc(-c2ccccc2)[nH]1 | Kd [8]: 3600 µM |
|  |  |  |  | O=C(O)c1ccc(-c2cccc3[nH]ccc23)[nH]1 | Kd [7]: 2200 µM |
| 2.3 µM | 331 Hz | 0.95 | 313 Hz | CCOc1cc(-c2c(C(=O)O)[nH]c(-c3cc(F)cc4[nH]ccc34)c2C(C)C)c2cc[nH]c2c1 |  |
| 5.8 µM |  |  |  | Cc1cc(-c2[nH]c(C(=O)O)c(-c3c(Cl)ccc4[nH]ccc34)c2C(C)C)c2cc[nH]c2c1 | Ratio IC50 [11]: 2; IC50 [12]: 2.5 µM |

| IC50 [1] | Activity (Homo sapiens [2]) | Ratio (Homo sapiens [3]) | Activity (Homo sapiens [4]) | SMILES | other results |
| --- | --- | --- | --- | --- | --- |
|  |  |  |  | O=C(O)c1ccc(-c2ccccc2)s1 | Kd [8]: 7000 µM |
| 2 µM |  |  |  | CC(C)c1c(-c2cccc3[nH]c(CO)cc23)[nH]c(C(=O)O)c1-c1c(Cl)ccc2[nH]ccc12 |  |
| 2.5 µM | 338 Hz | 0.92 | 318 Hz | COc1cc(-c2c(C(=O)O)[nH]c(-c3cc(F)cc4[nH]ccc34)c2C(C)C)c2cc[nH]c2c1 |  |
| 8.2 µM | 264 Hz | 0.81 | 215 Hz | CC(c1c(-c2cccc3[nH]ccc23)[nH]c(C(=O)O)c1-c1cccc2[nH]ccc12)C(F)F (stereo not drawn) | Ratio IC50 [11]: 2; IC50 [12]: 4.3 µM |
| 5.4 µM | 309 Hz | 0.92 | 285 Hz | CCc1cc(-c2c(C(=O)O)[nH]c(-c3cc(F)cc4[nH]ccc34)c2C(C)C)c2cc[nH]c2c1 | Ratio IC50 [11]: 2; IC50 [12]: 3.2 µM |
| 15.8 µM | 211 Hz | 0.65 | 138 Hz | O=C(O)c1[nH]c(-c2cccc3[nH]ccc23)c(C2CC2)c1-c1cccc2[nH]ccc12 |  |
|  |  |  |  | CCc1c(-c2cccc3[nH]ccc23)[nH]c(C(=O)O)c1C1CCCCC1 | Kd [7]: 170 µM |
| 2.8 µM | 305 Hz | 0.92 | 280 Hz | CC(C)c1c(-c2cc(F)cc3[nH]ccc23)[nH]c(C(=O)O)c1-c1cc(Cl)cc2[nH]ccc12 |  |
|  |  |  |  | CCc1c(-c2cccc3[nH]ccc23)[nH]c(C(=O)O)c1-c1ccccc1 | Kd [7]: 30 µM |
|  |  |  |  | Cc1cc(-c2cccc3[nH]ccc23)[nH]c1C(=O)O | Kd [7]: 1100 µM |
| 3.3 µM | 329 Hz | 0.94 | 308 Hz | CC(C)c1c(-c2cc(F)cc3[nH]ccc23)[nH]c(C(=O)O)c1-c1cccc2[nH]ccc12 | Kd [13]: 4 µM |
|  |  |  |  | CCc1c(-c2cccc3[nH]ccc23)[nH]c(C(=O)O)c1-c1ccccc1Cl | Kd [8]: 11.5 µM |
| 3.6 µM | 311 Hz | 0.95 | 295 Hz | CC(C)c1c(-c2cccc3[nH]ccc23)[nH]c(C(=O)O)c1-c1cccc2[nH]ccc12 | Kd [13]: 6.5 µM |
| 8 µM | 277 Hz | 0.78 | 216 Hz | CC(CF)c1c(-c2cccc3[nH]ccc23)[nH]c(C(=O)O)c1-c1cccc2[nH]ccc12 (stereo not drawn) |  |
| 13 µM | 163 Hz | 0.63 | 102 Hz | CCc1c(-c2cccc3[nH]ccc23)[nH]c(C(=O)O)c1-c1cccc2[nH]ccc12 | Kd [8]: 9 µM; inhibition (Homo sapiens [9]): Dose-dependent-effect; Inhibition Of E3 Ligase Activity Of Prc1 Observed; IC50 [10]: 19.3 µM |
| 4.8 µM | 319 Hz | 0.82 | 261 Hz | Cc1cc(-c2c(C(=O)O)[nH]c(-c3cc(F)cc4[nH]ccc34)c2C(C)C)c2cc[nH]c2c1 | Ratio IC50 [11]: 2; IC50 [12]: 2.6 µM |
| 4.3 µM | 330 Hz | 0.97 | 320 Hz | CC(C)c1c(-c2cc(F)cc3[nH]ccc23)[nH]c(C(=O)O)c1-c1cc(F)cc2[nH]ccc12 |  |
| 5.3 µM |  |  |  | CC(C)c1c(-c2cc(Cl)cc3[nH]ccc23)[nH]c(C(=O)O)c1-c1c(Cl)ccc2[nH]ccc12 |  |
